Measured values as given in US20260217698A1 (BEYANG THERAPEUTICS CO., LTD., priority 2022, published 2026).

Columns and labels:
EGFR = target: T1, EGFR (Homo sapiens, UniProt P00533); assay: Kinase inhibition, Mobility Shift Assay/IMAP, EGFR; format: biochemical
T1 construct: purchased Carna 08-115
Source text: (§1) This assay directly monitored the ability of compounds to inhibit kinase phosphorylation by measuring non-phosphorylated and phosphorylated substrates in kinase reactions by using Mobility Shift Assays/IMAP™ analysis.
(§2) Read the conversion ratio data on CaliperEZ Reader II. Convert conversion rates into inhibition ratio data.
(§3) “Min” indicates the readout of the control well without the addition of enzymes; and “Max” indicates the readout of the control well with the addition of DMSO Fit IC50 values with XL Fit excel add-in version […].
(§4) X indicates the log value of compound concentration, and Y indicates the inhibition ratio (% inhibition).

VEGFR2 = VEGFR2 (Homo sapiens, UniProt P35968); assay: Kinase inhibition, Mobility Shift Assay/IMAP, VEGFR2; format: biochemical; design: purchased Carna 08-191
Chain of VEGFR2 (P35968 790-1356 limits assumed): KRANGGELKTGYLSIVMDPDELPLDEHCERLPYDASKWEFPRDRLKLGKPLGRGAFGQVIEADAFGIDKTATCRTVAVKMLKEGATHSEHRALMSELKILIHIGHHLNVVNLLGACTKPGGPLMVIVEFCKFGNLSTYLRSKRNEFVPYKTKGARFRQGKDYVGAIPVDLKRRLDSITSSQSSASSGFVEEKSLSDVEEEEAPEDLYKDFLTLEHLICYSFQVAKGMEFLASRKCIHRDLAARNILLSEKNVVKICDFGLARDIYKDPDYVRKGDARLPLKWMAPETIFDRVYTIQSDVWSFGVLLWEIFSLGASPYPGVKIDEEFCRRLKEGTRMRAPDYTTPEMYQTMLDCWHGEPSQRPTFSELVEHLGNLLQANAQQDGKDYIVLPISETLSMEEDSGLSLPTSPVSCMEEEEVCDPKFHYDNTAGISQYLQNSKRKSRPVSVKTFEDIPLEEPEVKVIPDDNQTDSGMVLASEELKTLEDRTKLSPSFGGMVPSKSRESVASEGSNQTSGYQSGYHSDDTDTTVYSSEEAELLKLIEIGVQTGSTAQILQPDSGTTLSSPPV
Source text: as §1, §2, §3, §4

melanin = assay: Binding capacity of compounds to melanin; format: in vitro ADME, cuttlefish (Sepia officinalis); settings: cuttlefish (Sepia officinalis), melanin suspension (1 mg/mL); 1 mg/mL melanin in PBS pH 7.4, 2 μM compound, 2 h at 37° C.; read-out: Fu % (percentage of free drug)
Source text: Pigmented eye tissues contain melanin in intracellular melanosomes. Drugs bind to melanin to varying degrees, ranging from non-binding to extensive binding. Therefore, melanin binding is an important feature that affects drug delivery and biodistribution in the eye. The binding capacity of the compound to the melanin must be considered in the development of ophthalmic drugs.
Melanin was derived from the melanin of cuttlefish (Sepia officinalis) and was commercially available from Sigma Aldrich (St Louis, MO).
First, prepare 1 mg/mL melanin suspension with PBS (pH 7.4). As a washing step for the matrix, centrifuge the suspended particles for 5 min at 3000 rpm. Resuspend the resulting particles in a fresh PBS buffer, heat to 37° C. over continuous shaking and incubate it for 1 h. Accurately pipette 2 μL of the test stock solution (0.1 mM) into 98 μL of melanin suspension (1 mg/mL) to achieve a final incubation concentration of 2 μM. Similarly, accurately pipette 2 μL of the stock solution (0.1 mM) to 98 μL of PBS buffer (containing 0.1% BSA) as a blank control sample. Incubate the samples in a shaker (80-90 rpm) for 2 h at 37° C. Then, centrifuge the samples at room temperature. Pipette 50 μL of the supernatant and add 50 μL of precipitant (containing an internal standard). After protein precipitation of all the above samples, centrifuge the samples to collect the supernatants, dilute the supernatants with water (if necessary) and inject them for analysis. At the same time, measure the positive controls, including the high-binding compounds Sunitinib and chloroquine and the low-binding compound celecoxib. Establish an LC-MS/MS method for determining compound concentrations, and calibrate the peak area ratio of analyte/internal standard (Analyte/AIS) in the measured sample by the dilution factor to take it as an alternative concentration for the sample for data processing. The binding rate (Fb) of a compound in melanin was calculated as: […]
Ctest was the concentration of the compound in the melanin-incubated sample or the peak area ratio of the test compound to the internal standard. Ccontrol was the concentration of the compound in the blank control sample or the peak area ratio of the test compound to the internal standard. […]

T1 sequence (P00533 669-1210 limits assumed): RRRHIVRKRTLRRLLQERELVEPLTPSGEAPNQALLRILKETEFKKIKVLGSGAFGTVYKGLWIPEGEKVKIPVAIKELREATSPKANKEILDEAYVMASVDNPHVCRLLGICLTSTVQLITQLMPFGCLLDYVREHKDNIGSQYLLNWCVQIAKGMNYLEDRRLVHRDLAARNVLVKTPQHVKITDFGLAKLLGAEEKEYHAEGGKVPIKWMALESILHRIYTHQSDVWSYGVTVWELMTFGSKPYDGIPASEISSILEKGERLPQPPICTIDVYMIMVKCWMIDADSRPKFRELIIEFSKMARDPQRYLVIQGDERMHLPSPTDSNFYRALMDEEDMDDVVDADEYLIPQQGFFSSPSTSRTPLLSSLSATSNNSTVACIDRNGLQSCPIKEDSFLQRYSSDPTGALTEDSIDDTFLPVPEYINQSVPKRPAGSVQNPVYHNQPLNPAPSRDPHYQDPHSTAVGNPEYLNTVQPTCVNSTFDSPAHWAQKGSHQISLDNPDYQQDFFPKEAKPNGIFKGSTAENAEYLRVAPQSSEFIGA

Row | Compound | IC50 (EGFR) | IC50 (VEGFR2) | fraction unbound at 2 h, 2 μM (melanin)
1 | CCN1CCN(CCCNC(=O)Nc2snc(OCc3cc(C(=O)NC4CC4)ccc3F)c2C(N)=O)CC1 [Compound T163, 3-[[5-(cyclopropylcarbamoyl)-2-fluoro-phenyl]methoxy]-5-[3-(4-ethylpiperazin-1-yl)propylcarbamoylamino]isothiazole-4-carboxamide] | 11.2 µM | 0.00032 µM | 
2 | CC(C)(C)OC(=O)N1CCN(CCn2cc(Nc3snc(OCc4c(F)cc(Br)cc4F)c3C(N)=O)cn2)CC1 [Compound T046] |  | 0.062 µM | 
3 | NC(=O)c1c(OCc2cc(C(=O)NC3CC3)ccc2F)nsc1NC(=O)NCCCCN1CC[C@H](O)C1 [Compound T099] |  |  | 0.0884
4 | CCN1CCN(CCCNC(=O)Nc2snc(OCc3ccc(F)c(C(=O)NC4CC4)c3)c2C(N)=O)CC1 [Compound T164, 3-[[3-(cyclopropylcarbamoyl)-4-fluoro-phenyl]methoxy]-5-[3-(4-ethylpiperazin-1-yl)propylcarbamoylamino]isothiazole-4-carboxamide] | 12.2 µM | 0.00125 µM | 
5 | CC(C)NC(=O)c1cccc(COc2nsc(NC(=O)NCCCCN3CCCC3)c2C(N)=O)c1 [Compound T057, 3-((3-(isopropylcarbamoyl)benzyl)oxy)-5-(3-(4-(pyrrolidin-1-yl)butyl)ureido)isothiazole-4-carboxamide] | > 60 µM | 0.152 µM | 
6 | NC(=O)c1c(OCc2cc(C(=O)NC3CC3)ccc2F)nsc1N [Compound T159, 5-amino-3-[[5-(cyclopropylcarbamoyl)-2-fluoro-phenyl]methoxy]isothiazole-4-carboxamide] | 8.77 µM | 0.0417 µM | 
7 | NC(=O)c1c(OCc2cc(C(=O)NC3CC3)ccc2F)nsc1NC(=O)NCCCO [Compound T170, 3-[[5-(cyclopropylcarbamoyl)-2-fluoro-phenyl]methoxy]-5-(3-hydroxypropylcarbamoylamino)isothiazole-4-carboxamide] |  | 0.00112 µM | 
8 | COc1cc(OC)c(F)c(COc2nsc(NC(=O)NCCCC3CCCN3C)c2C(N)=O)c1F (stereo not drawn) [Compound T138, 3-[(2,6-difluoro-3,5-dimethoxy-phenyl)methoxy]-5-[3-(1-methylpyrrolidin-2-yl)propylcarbamoylamino]isothiazole-4-carboxamide] | > 60 µM | 0.0026 µM | 0.0398
9 | NC(=O)c1ccc(F)c(COc2nsc(NC(=O)NCCCN3CC[C@H](F)C3)c2C(N)=O)c1 [Compound T168, 3-[(5-carbamoyl-2-fluoro-phenyl)methoxy]-5-[3-[(3S)-3-fluoropyrrolidin-1-yl]propylcarbamoylamino]isothiazole-4-carboxamide] |  | 0.00845 µM | 
10 | CC(C)(C)OC(=O)CCNC(=O)Nc1snc(OCc2cc(C(=O)NC3CC3)ccc2F)c1C(N)=O [Compound T173, Tert-butyl 3-[[4-carbamoyl-3-[[5-(cyclopropylcarbamoyl)-2-fluoro-phenyl]methoxy]isothiazol-5-yl]carbamoylamino]propanoate] | 5.91 µM | 0.00197 µM | 
11 | CC(=O)N1CCN(CCCNC(=O)Nc2snc(OCc3ccc(F)c(C(=O)NC4CC4)c3)c2C(N)=O)CC1 [Compound T157, 5-[3-(4-acetylpiperazin-1-yl)propylcarbamoylamino]-3-[[3-(cyclopropylcarbamoyl)-4-fluoro-phenyl]methoxy]isothiazole-4-carboxamide] | 15.2 µM | 0.0025 µM | 
12 | CC(=O)N1CCN(CCCNC(=O)Nc2snc(OCc3cc(C(=O)NC4CC4)ccc3F)c2C(N)=O)CC1 [Compound T156, 5-[3-(4-acetylpiperazin-1-yl)propylcarbamoylamino]-3-[[5-(cyclopropylcarbamoyl)-2-fluoro-phenyl]methoxy]isothiazole-4-carboxamide] |  | 0.00144 µM | 
13 | Cn1ncc2c(COc3nsc(NC(=O)NCCCCN4CCCC4)c3C(N)=O)cccc21 [Compound T004, 3-((1-methyl-1H-indazol-4-yl)methoxy)-5-(3-(4-(pyrrolidin-1-yl)butyl)ureido)isothiazole-4-carboxamide] |  | 0.163 µM | 
14 | NC(=O)c1c(OCc2cccc(OC3CC3)c2)nsc1NC(=O)NCCCCN1CCCC1 [Compound T003, 3-((3-cyclopropoxybenzyl)oxy)-5-(3-(4-(pyrrolidin-1-yl)butyl)ureido)isothiazole-4-carboxamide] |  | 0.112 µM | 
15 | CN1CCN(CCCNC(=O)Nc2snc(OCc3cccc(C(=O)CC4CC4)c3)c2C(N)=O)CC1 [Compound T110, 3-[[3-(2-cyclopropylacetyl)phenyl]methoxy]-5-[3-(4-methylpiperazin-1-yl)propylcarbamoylamino]isothiazole-4-carboxamide] |  |  | 0.0485
16 | COc1cccc(COc2nsc(NC(=O)NCCCCN3CCCC3)c2C(N)=O)c1OC [Compound T032, 3-((2,3-dimethoxybenzyl)oxy)-5-(3-(4-(pyrrolidin-1-yl)butyl)ureido)isothiazole-4-carboxamide] | 39.6 µM | 0.0568 µM | 
17 | NC(=O)c1c(OCc2ccc3c(c2)OCCC3)nsc1NC(=O)NCCCCN1CCCC1 [Compound T097, 3-(chroman-7-ylmethoxy)-5-(4-pyrrolidin-1-ylbutylcarbamoylamino)isothiazole-4-carboxamide] |  |  | 0.0817
18 | COc1cc(F)c(F)c(COc2nsc(NC(=O)NCCCCN3CCCC3)c2C(N)=O)c1F [Compound T142, 5-(4-pyrrolidin-1-ylbutylcarbamoylamino)-3-[(2,3,6-trifluoro-5-methoxy-phenyl)methoxy]isothiazole-4-carboxamide] | 31 µM | 0.0066 µM | 
19 | Cc1cc(COc2nsc(NC(=O)NCCCCN3CCCC3)c2C(N)=O)nn1C [Compound T009, 3-((1,5-dimethyl-1H-pyrazol-3-yl)methoxy)-5-(3-(4-(pyrrolidin-1-yl)butyl)ureido)isothiazole-4-carboxamide] |  | 0.217 µM | 
20 | CCOc1ccc(F)c(COc2nsc(NC(=O)NCCCCN3CCCC3)c2C(N)=O)c1 [Compound T096, 3-((5-ethoxy-2-fluorobenzyl)oxy)-5-(3-(4-(pyrrolidin-1-yl)butyl)ureido)isothiazole-4-carboxamide] |  |  | 0.0792
21 | NC(=O)c1c(OCc2c(F)ccc(OC(F)F)c2F)nsc1NC(=O)NCCCCN1CCCC1 [Compound T148, 3-[[3-(difluoromethoxy)-2,6-difluoro-phenyl]methoxy]-5-(4-pyrrolidin-1-ylbutylcarbamoylamino)isothiazole-4-carboxamide] | 4.01 µM | 0.016 µM | 
22 | NC(=O)c1c(OCc2ccc(F)c(C(=O)NC3CC3)c2)nsc1NC(=O)NCCCN1CCN(C2CC2)CC1 [Compound T165, 3-[[3-(cyclopropylcarbamoyl)-4-fluoro-phenyl]methoxy]-5-[3-(4-cyclopropylpiperazin-1-yl)propylcarbamoylamino]isothiazole-4-carboxamide] | 31.6 µM | 0.00146 µM | 
23 | NC(=O)c1c(OCc2ccc(F)c(C(=O)NC3CC3)c2)nsc1NC(=O)NCCCCN1CC[C@@H](O)C1 [Compound T150, 3-[[3-(cyclopropylcarbamoyl)-4-fluoro-phenyl]methoxy]-5-[4-[(3R)-3-hydroxypyrrolidin-1-yl]butylcarbamoylamino]isothiazole-4-carboxamide] | 7.42 µM | 0.0012 µM | 
24 | NCCCNC(=O)Nc1snc(OCc2cc(C(=O)NC3CC3)ccc2F)c1C(N)=O [Compound T167, 5-(3-aminopropylcarbamoylamino)-3-[[5-(cyclopropylcarbamoyl)-2-fluoro-phenyl]methoxy]isothiazole-4-carboxamide] |  | 0.00095 µM | 
25 | NC(=O)c1c(OCc2cc(C(=O)NC3CC3)ccc2F)nsc1NC(=O)NCCCN1CCNCC1 [Compound T153, 3-[[5-(cyclopropylcarbamyl)-2-fluoro-phenyl]methoxy]-5-(3-piperazin-1-ylpropylcarbamylamino)isothiazol-4-formamide] |  | 0.00066 µM | 
26 | Cn1nc(COc2nsc(NC(=O)NCCCCN3CCCC3)c2C(N)=O)c2ccccc21 [Compound T002, 3-((1-methyl-1H-indazol-3-yl)methoxy)-5-(3-(4-(pyrrolidin-1-yl)butyl)ureido)isothiazole-4-carboxamide] |  | 0.13 µM | 
